Laboratory results from patent US20110071197A1, “BIS-ARYL COMPOUNDS FOR USE AS MEDICAMENTS” (priority 2008, published 2011).

target: T1, Recombinant human LTC4 synthase (Homo sapiens, UniProt Q16873); assay: LTC4 synthase in vitro assay (HTRF detection of LTC4); assay type: biochemical; conditions: compound concentration 3 μM; HTRF method
T1 construct: made in house; host or cells: Pichia pastoris
T1 sequence (Q16873 1-150): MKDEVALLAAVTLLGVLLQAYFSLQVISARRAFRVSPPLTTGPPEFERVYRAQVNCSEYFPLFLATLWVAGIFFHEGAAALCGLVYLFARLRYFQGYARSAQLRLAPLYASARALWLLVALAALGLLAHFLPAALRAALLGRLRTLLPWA
Protocol: Alternatively HTRF detection of LTC4 can be used:
In the assay, LTC4 synthase catalyses the reaction where the substrate LTA4 is converted to LTC4. Recombinant human LTC4 synthase is expressed in Piccia pastoralis and the purified enzyme is dissolved in 25 mM Tris-buffer pH 7.8 supplemented with 0.1 mM glutathione (GSH) and stored at −80° C. The assay is performed in phosphate buffered saline (PBS) pH 7.4 and 5 mM GSH in 384-well plates.
The following is added chronologically to each well: • 1. 48 μl LTC4 synthase in PBS with 5 mM GSH. The total protein concentration in this solution is 0.5 μg/ml. • 2. […] Incubation of the plate at room temperature for 10 minutes. • 4. 1 μl LTA4 (final conc. 2.5 μM). • 5. Incubation of the plate at room temperature for 5 minutes. • 6. 10 μl of the incubation mixture is analysed using homogeneous time resolved fluorescent (HTRF) detection.

| inhibition at 3 µM [%] | Compound |
| --- | --- |
| 97 | O=C(O)c1cc(Oc2ccc(Nc3ccc(C(=O)C4CC4)cc3)c(C(=O)O)c2)ccc1Nc1ccc(F)cc1 [1:7, 5-[3-carboxy-4-(4-cyclopropane-carbonylphenylamino)phenyloxy]-2-(4-fluorophenylamino)benzene-carboxylic acid] |

same assay, conditions: total concentration of title compound in the assay 10 μM; HTRF method

| Compound | inhibition at 10 µM [%] | % inh. [%] |
| --- | --- | --- |
| CCCCOc1ccc(S(=O)(=O)Nc2ccc(Oc3cccc(CC(=O)NS(=O)(=O)c4ccc(F)c(F)c4)c3)cc2C(=O)OC(C)(C)C)cc1 [26:3] | – | 95 |
| CCCCOc1ccc(S(=O)(=O)Nc2ccc(Oc3cccc(C(=O)NS(=O)(=O)c4ccc(F)c(F)c4)c3)cc2C(=O)O)cc1 [20:5, 2-(4-Butoxy-benzenesulfonylamino)-5-[3-(3,4-difluoro-benzenesulfonyl-aminocarbonyl)-phenoxy]-benzoic acid] | 97 | – |
| CCCCOc1ccc(S(=O)(=O)Nc2ccc(Oc3cccc(NCc4cccc(Cl)c4Cl)c3)cc2C(=O)O)cc1 [23:3, 2-(4-Butoxybenzenesulfonylamino)-5-[3-(2,3-dichlorobenzylamino)-phenoxy]benzoic acid] | 98 | – |
| CCCCOc1ccc(S(=O)(=O)Nc2ccc(Oc3ccc(NC(=O)c4ccccc4)cc3)cc2/C=C/C(=O)O)cc1 [Example 22:1, (E)-3-[5-(4-Benzoylaminophenoxy)-2-(4-butoxybenzenesulfonylamino)-phenyl]acrylic acid] | 96 | – |
| COc1ccc(S(=O)(=O)Nc2ccc(Oc3ccc(N(C)C(=O)c4ccc(C(C)(C)C)cc4)cc3)cc2C(=O)O)cc1 [21:3, 5-{4-[(4-t-Butyl-benzoyl)-methyl-amino]-phenoxy}-2-(4-methoxy-benzenesulfonylamino)-benzoic acid] | 99 | – |
| O=C(Nc1ccc(Oc2ccc(NS(=O)(=O)c3ccc(C(F)(F)F)cc3Cl)cc2)cc1C(=O)O)c1ccc(C(F)(F)F)cc1 [11:2, 5-[4-(2-chloro-4-trifluoromethyl-benzenesulfonylamino)phenoxy]-2-(4-trifluoromethylbenzoyl-amino)benzoic acid] | 97 | – |
| CCCCOc1ccc(S(=O)(=O)Nc2ccc(Oc3ccc(Nc4ccc(F)c(F)c4)cc3)cc2-c2nnn[nH]2)cc1 [Example 32:3, 4-Butoxy-N-[4-[4-(3,4-difluorophenyamino)phenoxy]-2-(tetrazol-5-yl)phenyl]-benzenesulfonamide] | – | 98 |
| CCCCOc1ccc(S(=O)(=O)Nc2ccc(Oc3ccc(N(C)C(=O)c4cccc(Cl)c4Cl)c(C(=O)O)c3)cc2)cc1 [11:10, 5-[4-(4-butoxybenzenesulfonyl-amino)phenoxy]-2-[(2,3-di-chlorobenzoyl)methylamino]-benzoic acid] | 95 | – |
| O=C(Nc1ccc(Oc2ccc(NC(=O)c3ccc([N+](=O)[O-])cc3)c(C(=O)O)c2)cc1C(=O)O)c1ccc([N+](=O)[O-])cc1 [4:3, 5-[3-carboxy-4-(4-nitrobenzamido)phenyloxy]-2-(4-nitrobenzamido)benzoic acid] | 97 | – |
| CCCCc1ccc(C(=O)Nc2ccc(Oc3ccc(NC(=O)c4ccc(F)c(Cl)c4)c(C(=O)O)c3)cc2C(=O)O)cc1 [2:7, 5-[3-carboxy-4-(3-chloro-4-fluorobenz-amido)-phenyloxy]-2-(4-butylbenz-amido)benzoic acid] | – | 100 |
| O=C(Nc1ccc(Cl)cc1)Nc1ccc(Sc2ccc(NC(=O)Nc3ccc(Cl)cc3)c(C(=O)O)c2)cc1 [14:5, 2-[3-(4-chlorophenyl)-ureido]-5-{4-[3-(4-chlorophenyl)-ureido]phenylsulfanyl}-benzoic acid] | 97 | – |
| O=C(O)c1cc(Sc2ccc(Nc3ccc(Cl)cc3)cc2)ccc1Nc1ccc(Cl)cc1 [Example 14:1, 2-(4-chlorophenylamino)-5-[4-(4-chlorophenylamino)-phenylsulfanyl]benzoic acid] | 98 | – |
| 2-[(2-Chloro-pyridine-3-carbonyl)-amino]-5-{4-[(4-methoxy-benzene-sulfonyl)methylamino]-phenoxy}benzoic acid [11:20] | – | 76 |
| CCCCN(c1ccc(Oc2ccc(Nc3ccc(F)c(F)c3)c(C(=O)O)c2)cc1)c1ccc(F)c(F)c1 [24:1, 5-{4-[n-Butyl-(3,4-difluorophenyl)-amino]phenoxy}-2-(3,4-difluoro-phenylamino)benzoic acid] | 93 | – |
| CCCCOc1ccc(S(=O)(=O)Nc2ccc(Oc3cccc(CC(=O)NS(=O)(=O)c4ccc(F)c(F)c4)c3)cc2C(=O)O)cc1 [26:4, 2-(4-Butoxybenzenesulfonylamino)-5-{3-[2-(3,4-difluorobenzenesulfonyl-amino)-2-oxoethyl]phenoxy}benzoic acid] | 95 | – |
| CCCCOc1ccc(S(=O)(=O)NC(=O)c2cccc(Oc3ccc(Nc4ccc(Cl)cc4)c(C(=O)O)c3)c2)cc1 [20:9, 5-[3-(4-Butoxy-benzenesulfonyl-aminocarbonyl)-phenoxy]-2-(4-chloro-phenylamino)-benzoic acid] | 100 | – |
| Cc1c(F)cccc1S(=O)(=O)Nc1ccc(Oc2ccc(N(C)C(=O)c3ccc(OC(C)C)cc3)c(C(=O)O)c2)cc1 [11:11] | – | 72 |
| CCCCOc1ccc(S(=O)(=O)Nc2ccc(Oc3cccc(C(=O)NS(=O)(=O)c4cccc(Cl)c4F)c3)cc2C(=O)O)cc1 [20:1, 2-(4-Butoxy-benzenesulfonylamino)-5-[3-(3-chloro-2-fluoro-benzene-sulfonylaminocarbonyl)-phenoxy]-benzoic acid] | 99 | – |
| CCCCOc1ccc(S(=O)(=O)Nc2ccc(Oc3cccc(NCc4cccc(OC)c4OC)c3)cc2C(=O)O)cc1 [23:2, 2-(4-Butoxybenzenesulfonylamino)-5-[3-(2,3-dimethoxybenzylamino)-phenoxy]benzoic acid] | 99 | – |
| CC(C)(C)c1ccc(C(=O)Nc2ccc(Oc3ccc(NC(=O)c4cccnc4Cl)c(C(=O)O)c3)cc2)cc1 [8:16, 5-[4-(4-tert-Butylbenzoyl-amino)phenoxy]-2-[(2-chloro-pyridine-3-carbonyl)-amino]benzoic acid] | 99 | – |
| CCCCc1ccc(C(=O)Nc2ccc(Oc3ccc(NC(=O)c4ccc(Cl)cc4Cl)c(CC(=O)O)c3)cc2C(=O)O)cc1 [6:1, 2-(4-butyl-benzoyl-amino)-5-[3-carboxy-methyl-4-(2,4-dichloro-benzoylamino)phenoxy]-benzoic acid] | – | 99 |

Further lines, with some results ahead:

| inhibition at 10 µM [%] | Compound | % inh. [%] |
| --- | --- | --- |
| 97 | CN(c1cc(Oc2ccc(NS(=O)(=O)c3cccc(Cl)c3Cl)cc2)cc(C(=O)O)c1)c1ccc(F)c(F)c1 [18:1, 3-[4-(2,3-dichloro-benzenesulfonylamino)-phenoxy]-5-[(3,4-difluoro-phenyl)-methyl-amino]-benzoic acid] | – |
| 98 | O=C(Nc1cccc(Oc2ccc(NC(=O)c3ccc(C(F)(F)F)cc3F)c(C(=O)O)c2)c1)c1ccc(C(F)(F)F)cc1 [10:6, 2-(2-fluoro-4-trifluoromethylbenzoyl-amino)-5-[3-(4-trifluoromethylbenzoyl-amino)phenoxy]benzoic acid] | – |
| 100 | O=C(O)c1cc(Oc2ccc(Nc3ccc(F)c(F)c3)c(C(=O)O)c2)ccc1Nc1ccc(F)c(F)c1 [1:3, 3,3′-oxybis[6-(3,4-difluorophenyl-amino)benzoic acid]] | – |
| 96 | COc1ccc(S(=O)(=O)N(C)c2ccc(Oc3ccc(NC(=O)c4cc(Cl)cnc4Cl)c(C(=O)O)c3)cc2)cc1 [11:21, 2-[(2,5-Dichloropyridine-3-carbonyl)amino]-5-{4-[(4-methoxybenzenesulfonyl)-methylamino]phenoxy}benzoic acid] | – |
| 97 | O=C(NS(=O)(=O)c1cccc(Cl)c1F)c1cccc(Oc2ccc(Nc3ccc(Cl)cc3)c(C(=O)O)c2)c1 [20:3, 5-[3-(3-Chloro-2-fluoro-benzene-sulfonylaminocarbonyl)-phenoxy]-2-(4-chloro-phenylamino)-benzoic acid] | – |
| 97 | O=C(O)c1cc(Oc2ccc(Nc3ccc(F)c(F)c3)cn2)ccc1Nc1ccc(F)c(F)c1 [Example 33:1, 2-(3,4-Difluorophenylamino)-5-[5-(3,4-difluorophenylamino)pyridin-2-yloxy]-benzoic acid] | – |
| 67 | O=C(Nc1ccc(Oc2ccc(NC(=O)c3ccc(OC(F)(F)F)cc3)c(C(=O)O)c2)cc1)c1ccccc1 [8:10, 5-(4-benzoylaminophenoxy)-2-(4-trifluoromethoxy-benzoylamino)benzoic acid] | – |
| 96 | O=C(O)c1cc(Oc2ccc(Nc3ccc(F)cc3)cc2)ccc1Nc1ccc(F)c(F)c1 [Example 12:1, 2-(3,4-difluorophenylamino)-5-(4-(4-fluorophenylamino)-phenoxy)benzoic acid] | – |
| 100 | O=C(O)c1cc(Oc2ccc(Nc3ccc4occc4c3)c(C(=O)O)c2)ccc1Nc1ccc(F)c(F)c1 [1:4, 5-[3-carboxy-4-(3,4-difluoro-phenylamino)phenyloxy]-2-(benzofuran-5-ylamino)benzoic acid] | – |
| 93 | O=C(Nc1ccc(Oc2ccc(NC(=O)c3ccccc3)c(C(=O)O)c2)cc1C(=O)O)c1ccccc1 [4:2, 5-[3-carboxy-4-benzamido-phenyloxy]-2-benzamidobenzoic acid] | – |
| 95 | CCCCc1ccc(C(=O)Nc2ccc(Oc3ccc(NS(=O)(=O)c4ccccc4)c(C(=O)OC)c3)cc2C(=O)O)cc1 [Example 7:1, 2-(4-butylbenzamido)-5-(3-(methoxycarbonyl)-4-(phenylsulfonamido)-phenoxy)benzoic acid] | – |
